The values below come from patent US20240400572A1, “COMPOUNDS AND METHODS FOR TREATING CANCERS THAT ARE MGMT DEFICIENT REGARDLESS OF MMR STATUS” (Yale University, priority 2021, published 2024).

For the experiment, the system named is γH2AX, 53BP1 and pRPA foci in LN229 MGMT+/−, MMR+/− cells. As to the kind of experiment: Immunofluorescence foci assays. As to conditions: 20 μM; for γH2AX, 53BP1 and pRPA foci formation (in words): 2 to 48 h; for DDR foci across cell cycle phases (in words): 48 h, G1, S and G2 phases. Format: cell-based, human. The protocol: Immunofluorescence Foci Assays. High-throughput immunofluorescence foci assays were performed at the Yale Center for Molecular Discovery (YCMD). Cells were seeded at 2000 cells/well in black polystyrene flat bottom 384-well plates (Greiner Bio-One) and allowed to adhere overnight. Compound addition was performed utilizing a Labcyte Echo 550 liquid handler (Beckman Coulter), with 6 replicates per test condition and 12 replicates per control condition. Following drug incubation, cells were fixed and stained for phospho-SER139-H2AX (γH2AX), 53BP1, or phospho-SER33-RPA2 (pRPA) as follows.
γH2AX protocol: Cells were fixed with 4% paraformaldehyde in 1×PBS for 15 min, washed twice with 1×PBS, incubated in extraction buffer (0.5% Triton X-100 in 1×PBS) for 10 min, washed twice with 1×PBS, and incubated in blocking buffer (Blocker Casein in PBS, Thermo Scientific+5% goat serum, Life Technologies) for 1 h. Mouse anti-phospho-histone H2A.X (Ser139) antibody (clone JBW301, Millipore, 05-636) was added 1/1000 in blocking buffer at 4° C. overnight. After washing with 1×PBS, cells were incubated with goat anti-mouse IgG (H+L) highly cross-adsorbed secondary antibody, Alexa Fluor 647 (Invitrogen, A-21236) 1/500 and with 1 μg/mL Hoechst nucleic acid dye in blocking buffer for 2 h, and then washed with 1×PBS.
53BP1 protocol: Cells were fixed with 4% paraformaldehyde+0.02% Triton X-100 in 1×PBS for 20 minutes, washed twice with 1×PBS, and incubated in blocking buffer (10% FBS, 0.5% Triton X-100 in 1×PBS) for 1 h. Rabbit anti-53BP1 antibody (Novus Biologicals, NB100-904) was added 1/1000 in blocking buffer at 4° C. overnight. After washing with 1×PBS, cells were incubated with goat anti-rabbit IgG (H+L) highly cross-adsorbed secondary antibody, Alexa Fluor 647 (Invitrogen, A-21245) 1/500 and with 1 μg/mL Hoechst nucleic acid dye in blocking buffer for 2 h, and then washed with 1×PBS.
pRPA protocol: Cells were washed twice with 1×PBS on ice, incubated in extraction buffer (0.5% Triton X-100 in 1×PBS) for 5 min on ice, fixed with 3% paraformaldehyde+2% sucrose in 1×PBS for 15 min at 23° C., incubated again in extraction buffer for 5 min on ice, and incubated in blocking buffer (2% BSA, 10% milk, 0.1% Triton X-100 in 1×PBS) for 1 h at 23° C. Rabbit anti-phospho-RPA2 (S33) antibody (Bethyl Laboratories, A300-246A) was added 1/1000 in blocking buffer at 4° C. overnight. […]
Additional small scale immunofluorescence assays used for extended time course analysis of γH2AX foci were performed in Millicell EZSLIDE 8-well chamber slides (Millipore). […] Imaging was performed on a Keyence BZ-X800 fluorescence microscope at 40× magnification. […]

As to `NC(=O)c1ncn2c(=O)n(CCF)nnc12` [KL-50, 3-(2-fluoroethyl)-4-oxo-3H,4H-imidazo[4,3-d][1,2,3,5]tetrazine-8-carboxamide], the “γH2AX, 53BP1 and pRPA foci formation (in words)” value was “maximal foci response at 48 h, specifically in MGMT− cells and irrespective of MMR status”; the “DDR foci across cell cycle phases (in words)” value is “foci formation primarily in the S- and G2-phases of the cell cycle”.
On to `Cn1nnc2c(C(N)=O)ncn2c1=O` [TMZ, temozolomide, reference compound], for which the “γH2AX, 53BP1 and pRPA foci formation (in words)” value was “comparable response in MGMT− cells, but this was abolished in the absence of functional MMR”; the “DDR foci across cell cycle phases (in words)” value is “did not observe foci induction or micronuclei formation in MGMT−/MMR− cells”.
